What was measured:
TRβ = target: T1, TRβ (Homo sapiens, UniProt P10828); assay: In vitro binding activity, LanthaScreen TR-FRET Thyroid Receptor beta Coactivator Assay; conditions: TRβ-LBD
T1 construct: Then 5 μL of 4×TRα-LBD or TRP-LBD; purchased Invitrogen PV4686
T1 sequence (P10828 217-461 limits assumed): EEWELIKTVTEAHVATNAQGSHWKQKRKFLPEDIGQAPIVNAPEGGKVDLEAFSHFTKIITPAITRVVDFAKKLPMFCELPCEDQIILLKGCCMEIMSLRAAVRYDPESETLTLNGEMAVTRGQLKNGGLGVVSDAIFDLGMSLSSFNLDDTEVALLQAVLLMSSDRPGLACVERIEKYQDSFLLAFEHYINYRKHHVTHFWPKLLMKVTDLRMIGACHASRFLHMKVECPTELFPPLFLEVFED
Method: (§1) 2. Detection of TRα or TRβ Binding Activity In Vitro of the Compound of the Present Invention
(§2) • LanthaScreen TR-FRET Thyroid Receptor beta Coactivator Assay kit was purchased from Invitrogen, Cat. No. PV4686; • LanthaScreen TR-FRET Thyroid Receptor alfa Coactivator Assay kit was purchased from Invitrogen, Cat. No. PV4687. Test Method:
(§3) This method was tested using LanthaScreen TR-FRET Thyroid Receptor beta/alfa Coactivator Assay kit. The test compound was dissolved in DMSO and diluted three-fold to obtain a total of 10 concentrations, then the compounds were diluted into solutions containing 2% DMSO with TR-FRET Coregulator Buffer C in the kit. 10 μL of the compounds containing 2% DMSO were taken to a 384-well plate. Then 5 μL of 4×TRα-LBD or TRP-LBD and 5 μL of a mixture containing 0.4 μM fluorescein-SRC2-2 and 8 nM Tb anti-GST antibody were added to each well. After mixing well, the compounds were incubated at room temperature in the dark for 1 h. After 1 h, the fluorescence value (RFU) was read at 520 nm and 495 nm using PHERAstar FSX microplate reader from BMG LABTECH. The emission signal at 520 nm was divided by the emission signal at 495 nm to calculate the TR-FRET ratio.

[1] = Pharmacokinetic determination in SD rats (plasma, LC/MS/MS); type: in vivo; conditions: SD rat; for pharmacokinetic properties (in words): intravenous injection or oral gavage, compared to control MGL3196; for AUC(0-t) / Cmax / Tmax / half-life: male, plasma
Description: Test purpose: The following method is used to determine the pharmacokinetics of the compounds of the present invention.
Experimental reagents and test compounds: Propranolol (internal standard), methanol, ammonium acetate, K2EDTA (potassium ethylenediamine tetraacetate), formic acid, acetonitrile, MTBE (methyl tert-butyl ether), KolliphorHS15 (polyethylene glycol 12 hydroxystearate), DMSO (dimethyl sulfoxide) are commercially available; • SD rat: male, 180-220 g, 7-8 weeks old, purchased from Hunan Slake Experimental Animal Co., Ltd. Test Method: 1. Preparation of Test Compounds
Each test compound prepared was completely dissolved in a mixture of 5% DMSO+5% KolliphorHS 15+90% Saline according solubility property thereof.
(1) Preparation of the test compound stock solution: an appropriate amount of test compound was precisely weighed, dissolved in DMSO, diluted to 1 mg/mL with acetonitrile, and shaken well to obtain the test compound stock solution, which was stored at −20° C. for use.
(2) Preparation of internal standard solution: a certain amount of 1 mg/mL Propranolol stock solution was precisely drawn and diluted to 100 ng/mL with water.
The liquid-liquid extraction method was used to process the samples for chromatographic separation. On a triple quadrupole tandem mass spectrometer, quantitative analysis was performed using multiple reactive ion monitoring (MRM), and the concentration were calculated using instrument quantitative software.
30 μL of plasma sample was accurately drawn, and added with 250 μL of internal standard. The mixture was mixed well by vortexing. The mixture was extracted once with 1 mL of MTBE, centrifuged at 13,000 rpm, 4° C. for 2 min, then 800 μL of supernatant was sucked, and evaporated in a 96-well nitrogen blower. The residue was re-dissolved with 150 μL of methanol/water (v/v=50/50), mixed by vortexing, and injected. The injection volume was 8 μL.
An appropriate amount of compound stock solution was accurately drawn, and diluted with acetonitrile to obtain standard series solution. 20 μL of each of the above standard series solutions was accurately drawn, added with 180 μL of blank plasma, and mixed well by vortexing to prepare plasma samples equivalent to plasma concentrations of 3, 5, 10, 30, 100, 300, 1,000, 3,000, 5,000, and 10,000 ng/mL, which were all processed according to “pretreatment of plasma samples”. Two samples were analyzed for each concentration to establish a standard curve.
The content of the test compound in the plasma of rats after administration of different compounds was determined by LC/MS/MS method.
Pharmacokinetic parameters were calculated using a noncompartmental method by WinNonLin 6.1 software.

TRα = target: T2, TRα (Homo sapiens, UniProt P10827); assay: In vitro binding activity, LanthaScreen TR-FRET Thyroid Receptor alfa Coactivator Assay; conditions: TRα-LBD
T2 construct: Then 5 μL of 4×TRα-LBD or TRP-LBD; purchased Invitrogen PV4687
T2 sequence (P10827 163-410 isoform P10827-2 limits assumed, other chains not shown): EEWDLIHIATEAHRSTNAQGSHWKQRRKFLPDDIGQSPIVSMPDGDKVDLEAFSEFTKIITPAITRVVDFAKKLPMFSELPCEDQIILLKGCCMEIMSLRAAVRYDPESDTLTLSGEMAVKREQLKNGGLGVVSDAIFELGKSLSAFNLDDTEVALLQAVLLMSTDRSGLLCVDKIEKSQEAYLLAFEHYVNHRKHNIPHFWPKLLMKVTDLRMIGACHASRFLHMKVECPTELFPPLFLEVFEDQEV
Method: as §1, §2, §3

Row | Structure (SMILES) | EC50 (TRβ) [nM] | pharmacokinetic properties (in words) [1] | AUC(0-t) ([1]; po, ig, 5 mg/kg) [ng·h/mL] | Cmax ([1]; po, ig, 5 mg/kg) [ng/mL] | Tmax ([1]; po, ig, 5 mg/kg) [h] | half-life ([1]; po, ig, 5 mg/kg) [h] | AUC(0-t) ([1]; iv, 1 mg/kg) [ng·h/mL] | Cmax ([1]; iv, 1 mg/kg) [ng/mL] | Tmax ([1]; iv, 1 mg/kg) [h] | half-life ([1]; iv, 1 mg/kg) [h] | EC50 (TRα) [nM]
1 | O=c1cnn(-c2cc(Cl)c(Oc3ccc(=O)n(Cc4ccccc4)c3)c(Cl)c2)c(=O)[nH]1 [Example 29, 2-(4-((1-benzyl-6-oxo-1,6-dihydropyridin-3-yl)oxy)-3,5-dichlorophenyl)-1,2,4-triazine-3,5-dione] | 11 | excellent pharmacokinetic properties | 115000 | 20000 | 0.417 | 2.89 | 16900 | 8920 | 0.083 | 2.38 | 370
2 | COC(=O)c1nn(-c2cc(Cl)c(Oc3ccc(=O)n(Cc4ccccc4)c3)c(Cl)c2)c(=O)[nH]c1=O [Example 16, Methyl 2-(4-((1-benzyl-6-oxo-1,6-dihydropyridin-3-yl)oxy)-3,5-dichlorophenyl)-3,5-dioxo-2,3,4,5-tetrahydro-1,2,4-triazine-6-carboxylate] | 360 | excellent pharmacokinetic properties | 33600 | 12700 | 0.5 | 3.05 | 17400 | 17300 | 0.083 | 4 | 16300
3 | CC(C)c1cc(Oc2c(Cl)cc(-n3nc(C#N)c(=O)[nH]c3=O)cc2Cl)n[nH]c1=O [MGL3196, reference compound] | – | – | 20700 | 2610 | 2 | 4.26 | 8840 | 5990 | 0.083 | 2.74 | –
4 | CCOC(=O)C(C)n1cc(Oc2c(Cl)cc(-n3nc(C#N)c(=O)[nH]c3=O)cc2Cl)ccc1=O (stereo not drawn) [Example 24, Ethyl 2-(5-(2,6-dichloro-4-(6-cyano-3,5-dioxo-1,2,4-triazin-2-yl)phenoxy)-2-oxypyridine-1(2H)-yl)propionate] | 20 | – | – | – | – | – | – | – | – | – | 570
5 | N#Cc1nn(-c2cc(Cl)c(Oc3ccc(=O)n(Cc4ccc(F)cc4)c3)c(Cl)c2)c(=O)[nH]c1=O [Example 13, 2-[3,5-dichloro-4-[[1-(4-fluorobenzyl)-6-oxo-1,6-dihydropyridin-3-yl]oxy]phenyl]-3,5-dioxo-1,2,4-triazine-6-carbonitrile] | 20 | – | – | – | – | – | – | – | – | – | 600
6 | N#Cc1nn(-c2cc(Cl)c(Oc3cnc(=O)n(Cc4ccccc4)c3)c(Cl)c2)c(=O)[nH]c1=O [Example 10, 2-[4-(1-benzyl-2-oxo-1,2-dihydropyrimidin-5-yl)oxy-3,5-dichlorophenyl]-3,5-dioxo-1,2,4-triazine-6-carbonitrile] | > 10000 | – | – | – | – | – | – | – | – | – | > 100000
